Measured values published in US11518759B1, “Protacs based on VHL ligand targeting coronavirus 3CL protease and preparation method and application thereof” (SHAANXI PANLONG PHARMACEUTICAL CO., LTD., priority 2022, dated 2022).
Read-outs that look alike come from different tables or passages of the source.

Tests used:
SARS-CoV-2 3CL^pro [1] = target: T1, SARS-CoV-2 3CL^pro (Severe acute respiratory syndrome coronavirus 2 (2019-nCoV) (SARS-CoV-2), UniProt P0DTD1); test: biochemical; settings: FRET
SARS-CoV-2 3CL^pro [2] = target: T1, SARS-CoV-2 3CL^pro; type: cell-based; settings: 24 h, Western Blot

Cc1ncsc1-c1ccc(CNC(=O)[C@@H]2C[C@@H](O)CN2C(=O)[C@@H](NC(=O)COCCOCCn2cc(Cn3c(=O)[nH]/c(=N\c4cc5cn(C)nc5cc4Cl)n(Cc4cc(F)c(F)cc4F)c3=O)nn2)C(C)(C)C)cc1 [Compound 8]
< 100 nM: IC50 (SARS-CoV-2 3CL^pro [1]; SARS-CoV-2 3CLpro 0.5 μM, substrate 20 μM, class symbols, read-out: IC50) | IC50 (SARS-CoV-2 3CL^pro [1]; bound stated, read-out: IC50 values on 3CL^pro) | DC50 (SARS-CoV-2 3CL^pro [2]; HEK293E cells transfected with 3CLpro plasmid, class symbols) | DC50 (SARS-CoV-2 3CL^pro [2]; read-out: DC50 values for 3CL^pro, HEK293E cells, bound stated)
